Residues, ends and D or L forms follow the SMILES beside them. *: point of attachment. Myristoyl = CCCCCCCCCCCCCC(=O)*
Columns and labels:
[1] = tested on: S. aureus ATCC 25923; assay type: cell-based, Staphylococcus aureus; details: ATCC 25923, 1 h
Experimental: The effects of abiotic factors on the antibacterial activity of Myr-36PW were investigated by MIC assay (Xi et al., [2013]; Zhong et al., [2019]). S. aureus ATCC 25923 and P. aeruginosa GIM 1.551 overnight cultures were diluted to 1 × 10^6 CFU/mL, and the MICs of peptides in MHB with different concentration of physiological salts (150 mM NaCL, 2 mM CaCL2) were determined. And after the peptides incubated in 10% mice serum for 1 h at 37°C, MICs of peptides against S. aureus ATCC 25923 and P. aeruginosa GIM 1.551 were determined. The MICs in MHB in the absence of physiological salts and serum were used as the control group.
Salt and serum stability in vitro were indicated by MIC assay. The concentrations of NaCl and CaCl2 were physiological concentration. 10% mice serum was inactivated by heat treatment for 15 min at 60 ℃。The control group was measured in the absence of physiological salts or serum in MHB.

[2] = tested on: P. aeruginosa GIM 1.551; test: Inhibition zone assay (disk diffusion); assay type: cell-based, Pseudomonas aeruginosa; set-up: key: +, means the peptide has antibacterial activity; details: disk 10 μg peptide, 18 h at 37°C, * P < 0.05, ** P < 0.01 vs PMAP-36PW
Experimental: (§1) The inhibition zone assay was performed through the disk diffusion to evaluate the antimicrobial activity of Myr-36PW in vitro (Dunne et al., [2017]). The four above-mentioned bacterial strains were used as experimental strains, with L. monocytogenes CICC 21634 cultured in BHI medium, and P. aeruginosa GIM 1.551 cultured in TSB medium. The bacterial cells were cultured for 12 h at 37°C in the appropriate medium, and the bacterial cell suspension was spread on LB agar. The disks containing 10 μg of peptides (1 μg/μL) were attached to the solid medium and incubated at 37°C for 18 h. Finally the diameter of the inhibition zone was measured.

[3] = tested on: S. aureus ATCC 25923, S. typhimurium SL 1344, and P. aeruginosa GIM 1.551; test: Biofilm eradication assay (crystal violet and colony count); assay type: cell-based; details: 128 μg/mL, n = 5
Experimental: The biofilm-eradicating ability of Myr-36PW was determined against S. aureus ATCC 25923, S. typhimurium SL 1344, and P. aeruginosa GIM 1.551 (Chen et al., [2018]; de Breij et al., [2018]). In brief, 200 μL of bacterial dilution (1 × 10^6 CFU/mL) was added into a 96-well plate and incubated for 24 h at 37°C to form a biofilm, which was washed three times with PBS. Subsequently, 200 μL of peptides at 128 μg/mL were added to the wells. After incubation for 1 h at 37°C, the OD of each well was measured at 620 nm by crystal violet staining. The wells were gently washed three times with PBS after 1 h incubation to evaluate the killing effect of Myr-36PW against bacteria in the biofilm. Afterward, 100 μL of suspension was serially diluted and spread on LB agar plates, and bacterial colony was measured.
(§2) Figure 6 Biofilm inhibition and eradication of Myr-36PW. (A–C) Inhibition of biofilm formation by Myr-36PW. (D) Eradication of preformed biofilm by Myr-36PW. (E) Killing effect of Myr-36PW against biofilm bacteria. Inhibition rate % = [1 – OD620 nm(peptides)/OD620 nm(bacteria)] × 100%. Biofilm mass % = OD620 nm(peptides)/OD620 nm(control) × 100%. The control group was bacterial culture without peptides. Data represent the mean ± SD (n = 5).

[4] = tested on: S. aureus ATCC 25923, S. typhimurium SL 1344, and P. aeruginosa GIM 1.551; test: Biofilm inhibition assay (crystal violet); assay type: cell-based; details: 0.25–128 μg/mL, 24 h at 37°C, crystal violet OD 620 nm; n = 5
Experimental: The biofilm-inhibiting ability of Myr-36PW was evaluated against S. aureus ATCC 25923, S. typhimurium SL 1344, and P. aeruginosa GIM 1.551 by using crystal violet dye (Chen et al., [2018]; de Breij et al., [2018]). Overnight cultured strains in TSB medium were diluted to 1 × 10^6 CFU/mL, 100 μL of bacterial suspension with 100 μL of different concentration of peptides (0.25–128 μg/mL) was added into a 96-well plate. Bacterial suspension without peptides was used the negative control. After incubation for 24 h at 37°C, the supernatant weas discarded, and the biofilm was gently washed with PBS, fixed in methanol for 20 min, stained with 0.1% (w/v) crystal violet for 10 min, and finally removed. After washing with PBS, 95% ethanol was added into wells, and the optical density (OD) was measured at 620 nm.
as §2

[5] = tested on: S. typhimurium SL 1344; test: Inhibition zone assay (disk diffusion); assay type: cell-based, Salmonella typhimurium; set-up: key: +, means the peptide has antibacterial activity; details: disk 10 μg peptide, 18 h at 37°C, * P < 0.05, ** P < 0.01 vs PMAP-36PW
Experimental: as §1

[6] = tested on: P. aeruginosa GIM 1.551; test: Wound infection model; assay type: in vivo, BALB/c mice; details: 20 μL, 1 μg/μL, once a day for 7 days
Experimental: Sixty mice with ten mice in each group were used in the experiment. Infection and treatment were performed as previously described (Hong et al., [2017]). The mouse dorsal region with a diameter of 3.0 cm was treated with hair pusher, and a full-thickness 2.0 cm diameter wound was created by excising the skin and infected by direct seeding with P. aeruginosa GIM 1.551 (1 × 10^8 CFU/mL, 50 μL). The wound was then covered with sterile gauze to prevent cross contamination. Treatment was initiated at 24 h after bacterial inoculation. The mice with no infection and treatment was used as a blank control, those provided with PBS (20 μL) as the negative control group, those administered with ampicillin sodium (20 μL, 1 μg/μL) as the positive control group, and the remaining were those treated with the three peptides (20 μL, 1 μg/μL) once a day for 7 days as the treatment groups. The mice were sacrificed after the 7 day treatment. Changes in the wound were observed, and the infected sections of skin were aseptically contained, homogenized, and serially diluted. Bacterial CFU counts were obtained.
Figure 11 Treatment value of wound by Myr-36PW in vivo. A 2 cm wound was cut with a knife and directly injected with P. aeruginosa GIM 1.551. (A) Wound changes of mice after 7 days treatment. (B) Bacterial CFU in the wound area treated for 7 days under different experimental conditions. AS is ampicillin sodium. Data represent the mean Log (CFU) ± SD of five individual experiments. *P < 0.05 and **P < 0.01, compared with PBS. ^#P < 0.05, compared with PMAP-36PW.

[7] = Self-assembly of the peptide; assay type: physicochemical; details: stated in discussion, method not given
[8] = tested on: L. monocytogenes CICC 21634; test: Inhibition zone assay (disk diffusion); assay type: cell-based, Listeria monocytogenes; set-up: key: +, means the peptide has antibacterial activity; details: disk 10 μg peptide, 18 h at 37°C, * P < 0.05, ** P < 0.01 vs PMAP-36PW
Experimental: as §1

CCCCCCCCCCCCCC(=O)NCC(=O)NCC(=O)N[C@@H](CCCNC(=N)N)C(=O)N[C@@H](Cc1ccccc1)C(=O)N[C@@H](CCCNC(=N)N)C(=O)N[C@@H](CCCNC(=N)N)C(=O)N[C@@H](CC(C)C)C(=O)N[C@@H](CCCNC(=N)N)C(=O)N[C@@H](CCCCN)C(=O)N[C@@H](CCCCN)C(=O)N[C@H](C(=O)N[C@@H](CCCNC(=N)N)C(=O)N[C@@H](CCCCN)C(=O)N[C@@H](CCCNC(=N)N)C(=O)N[C@@H](CC(C)C)C(=O)N[C@@H](CCCCN)C(=O)N[C@@H](CCCCN)C(=O)N[C@H](C(=O)NCC(=O)N[C@@H](CCCCN)C(=O)N[C@H](C(=O)N[C@@H](CC(C)C)C(=O)N[C@@H](CCCCN)C(=O)N[C@@H](Cc1c[nH]c2ccccc12)C(=O)N[C@H](C(=O)N[C@@H](Cc1c[nH]c2ccccc12)C(=O)N[C@@H](Cc1c[nH]c2ccccc12)C(=O)N[C@H](C(=O)N[C@H](C(=O)NCC(=O)N[C@@H](CO)C(=O)N[C@H](C(=O)N1CCC[C@H]1C(=O)N[C@@H](CC(C)C)C(=O)NCC(=O)N[C@@H](CS)C(=O)NCC(=O)O)[C@@H](C)CC)C(C)C)[C@@H](C)CC)[C@@H](C)CC)C(C)C)[C@@H](C)CC)[C@@H](C)O [Myr-36PW] (Myristoyl-GGRFRRLRKKTRKRLKKIGKVLKWIWWIVGSIPLGCG-OH; C-terminus assumed)
MICs, Control [1]: 0.0156 µg/mL | MICs, Serum [1]: 0.0313 µg/mL | In vitro antibacterial activity (disk diffusion) [2]: +** | Eradication of preformed biofilm ([3]; 1 h at 37°C on 24 h biofilm, crystal violet OD 620 nm): only eradicated the preformed biofilm in Gram-negative bacteria | Killing effect against biofilm bacteria ([3]; 1 h at 37°C, colony count): bacterial killing effect except against S. aureus ATCC 25923 | Inhibition of biofilm formation [4]: biofilm inhibition against the tested bacteria in a concentration-dependent manner | In vitro antibacterial activity (disk diffusion) [5]: +* | Wound size [6]: significantly reduced | Bacterial CFU in the wound area ([6]; vs PBS group: PMAP-36PW P < 0.05, Myr-36PW and ampicillin sodium P < 0.01, n = 5): significantly reduced | Self-assembly [7]: not self-assembly | In vitro antibacterial activity (disk diffusion) [8]: +**

Source: paper PMC7481357, “N-terminal Myristoylation Enhanced the Antimicrobial Activity of Antimicrobial Peptide PMAP-36PW” (Frontiers in Cellular and Infection Microbiology, 2020)
